In patent publication US20250367183A1, “SUBSTANCE FOR PROMOTING REGENERATION AND REPAIR OF ORGANS OF MAMMALS AND USE THEREOF” (INSTITUTE OF ZOOLOGY, CHINESE ACADEMY OF SCIENCES, priority 2022, published 2025):
Where two headings read alike, the source gives them in different places.

Legend:
[1] = tested on: 2 mm diameter mouse ear hole; assay: ear hole trauma mouse model, 2 mm diameter ear puncher; assay type: in vivo, C57BL/6 mice; details: for healing of 2 mm ear hole: ferroptosis/autophagy inhibitors 10-20 mg/kg, measured 21 days after damage, n≥8 (FIG. 3); for healing of the 2 mm ear hole: treated 21 days, vs Vehicle (FIG. 1B)
[2] = tested on: 4 mm diameter mouse ear hole; set-up: species or system mice; details: in vivo
[3] = tested on: overall protein translation; assay type: cell-based

`O=C1OC(COc2ccccc2[N+](=O)[O-])CC1Cc1ccccc1` (stereo not shown) [3BDO] was tested, and the “healing of 2 mm ear hole” value [1] was “Neither inhibitors of ferroptosis nor autophagy could promote the healing of the ear hole like CHX”.

For `COc1ccc(C[C@H]2NC[C@H](O)[C@H]2OC(C)=O)cc1` [Ani, anisomycin], the “healing of the 2 mm ear hole” value ([1]; Ani 10 mg/kg) was “significantly promote the healing of the ear hole”.

`Cc1cc(Nc2cc(Cl)nc(Oc3ccc([N+](=O)[O-])cc3)n2)n[nH]1` [Autophinib] was tested, and the “healing of 2 mm ear hole” value [1] was “Neither inhibitors of ferroptosis nor autophagy could promote the healing of the ear hole like CHX”.

With `C[C@@H]1C[C@@H]([C@H](O)CC2CC(=O)NC(=O)C2)C(=O)[C@@H](C)C1` [CHX, 4-((R)-2-((1S,3S,5S)-3,5-dimethyl-2-oxocyclohexyl)-2-hydroxyethyl)piperidine-2,6-dione] the ISG gene expression (ISG genes; fibroblasts and macrophages) was “upregulate the expression of classical ISGs”, the “wound area of 4 mm ear hole” value [2] was “significantly reduced” and the “HE staining of auricle tissue” value ([1]; CHX 20 mg/kg (FIG. 1E)) was “the trauma had completely healed”. The “HE staining of auricle tissue” value ([1]; CHX 20 mg/kg, 15th day after trauma (FIG. 1F)) was “healed the tissue after damage and formed granulation tissue”, the “KI67 immunohistochemical staining of auricle tissue” value ([1]; CHX 20 mg/kg, 7 days, basal cells (FIG. 1G)) was “expressed a large amount of KI67” and the “closure of 2 mm ear hole wound” value ([1]; CHX 20 mg/kg, 30 days (FIG. 1D)) was “completely closed”. The “HE staining of auricle tissue, regenerated tissues” value ([1]; CHX 20 mg/kg, 180 days after ear hole closure (FIG. 1H)) was “regeneration of tissues and tissue derivatives such as hair follicles, glands, cartilage, muscles and blood vessels”, the “healing of the 2 mm ear hole” value ([1]; CHX 20 mg/kg) was “significantly promote the healing of the ear hole” and the “closure of 2 mm ear hole wound” value ([1]; CHX greater than 8 mg/kg, after three weeks of treatment (FIG. 1C)) was “completely closed”. The “closure of 2 mm ear hole” value ([1]; each concentration of CHX, intraperitoneal, n≥8 (FIG. 1C)) was “promoted the closure of a 2 mm diameter of ear holes” and the “healing effect by administration manner” value ([1]; oral gavage and intraperitoneal injection, 3 weeks (FIG. 1I)) was “different manners of administration had the effect of promoting regeneration”.

In the case of `Cn1nc(C(C)(C)C)cc1NC(=O)Nc1ccc(Oc2ccncc2)cc1` [MAPK13-IN-1], the ISG gene expression (ISG genes; FIG. 9B, cell type not given) is reported as “promote the ISG gene expression”, the “HE staining of ear hole” value ([1]; MAPK13-IN-1 20 mg/kg (FIG. 9C)) is reported as “the trauma was almost completely healed” and the “Masson staining of ear hole” value ([1]; MAPK13-IN-1, 21 days of treatment (FIG. 9D)) is reported as “Obvious regeneration of muscle fiber bundles was observed”.

`O=C1N[C@@H]2C(=C[C@H](O)[C@@H](O)[C@H]2O)c2cc3c(c(O)c21)OCO3` [Narciclasine] was tested, and the ISG gene expression (ISG genes; fibroblasts and macrophages) was “significantly promoted the expression of ISG genes”, the “inhibition of overall protein translation” value [3] was “significantly inhibit the overall protein translation” and the “regenerated tissues in closed ear holes (histochemical, Masson)” value ([1]; Narciclasine 1-3 mg/kg (FIG. 5F, 5G)) was “regenerate tissues and tissue derivatives such as hair follicles, glands, cartilage and muscles”. For the same molecule, the “healing of 2 mm ear holes” value ([1]; Narciclasine 1-3 mg/kg, intraperitoneal (FIG. 5D, 5E)) was “significantly promote the healing of 2 mm ear holes”.

For `O=C1N[C@H]2[C@H](O)[C@H](O)[C@@H](O)[C@H](O)[C@@H]2c2cc3c(c(O)c21)OCO3` [Pancratistatin], the ISG gene expression (ISG genes) was “significantly promote the ISG gene expression”, the “inhibition of overall protein translation” value [3] was “significantly inhibit overall protein translation” and the “HE and Masson staining of ear hole” value ([1]; mouse, in vivo) was “completely closed and identified as a regeneration event”. The “closure of 2 mm ear hole” value ([1]; mouse, in vivo) was “the ear hole was completely closed”.

`O=C(Nc1ccc(C(O)(C(F)(F)F)C(F)(F)F)cc1)c1ccc(C(F)(F)F)cc1` [SR1078] was tested, and the “healing of ear holes” value ([1]; SR1078 1 mg/kg, 21 days after trauma, n≥7 (FIG. 10A)) was “significantly inhibited regeneration”.

With `O=S(=O)(Nc1ccc(C(O)(C(F)(F)F)C(F)(F)F)cc1)c1cccs1` [SR3335] the ISG gene expression (ISG genes; fibroblasts and macrophages) was “promote the ISG gene expression”, the “healing of ear holes” value ([1]; SR3335 10 mg/kg, 21 days after trauma, n≥7 (FIG. 10A)) was “promoted the ear holes” and the “HE staining of ear hole” value ([1]; SR3335 (FIG. 10D)) was “the wound was almost completely healed”. The “Masson staining of ear hole” value ([1]; SR3335, 21 days of treatment (FIG. 10E)) was “regeneration structures of cartilage, hair follicles, sebaceous glands (arrows), and muscles”.

`O=S(=O)(NCCN1CCNCC1)c1ccc(NC2CCCCC2)c(NCc2ccccc2)c1` [UAMC-3203] was tested, and the “healing of 2 mm ear hole” value [1] was “Neither inhibitors of ferroptosis nor autophagy could promote the healing of the ear hole like CHX”.

B1: S100A8/A9: S100A8/A9 heterodimer (Biolegend, 765502), alarmin protein (protein, UniProt P05109 1-93; P06702 1-114, looked up)
Protein S100-A8: MLTELEKALNSIIDVYHKYSLIKGNFHAVYRDDLKKLLETECPQYIRKKGADVWFKELDINTDGAVNFQEFLILVIKMGVAAHKKSHEESHKE
Protein S100-A9: MTCKMSQLERNIETIINTFHQYSVKLGHPDTLNQGEFKELVRKDLQNFLKKENKNEKVIEHIMEDLDTNADKQLSFEEFIMLMARLTWASHEKMHEGDEGPGHHHKPGLGEGTP
In the case of B1, the ISG gene expression (ISG genes; 5 ng/ml, fibroblasts and macrophages (FIG. 8A, 8B)) is reported as “significantly promote the ISG gene expression”, the “healing of ear holes” value ([1]; S100A8/A9 12.5 μg/kg ip every two days, 35th day after damage (FIG. 8C)) is reported as “significantly promoted the healing of the ear holes” and the “complete closure of ear holes” value ([1]; S100A8/A9 12.5 μg/kg, 35th day after damage) is reported as “one of the ear holes was completely closed”. For the same molecule, the “HE and Masson staining, regenerated structures” value ([1]; S100A8/A9 (FIG. 8D)) was “regeneration of various tissue structures, such as epidermis, dermis, hair follicles, glands, cartilage”.

B2: interferon (IFN) γ: cytokine interferon γ (protein, UniProt P01579 24-161, looked up)
Interferon gamma: QDPYVKEAENLKKYFNAGHSDVADNGTLFLGILKNWKEESDRKIMQSQIVSFYFKLFKNFKDDQSIQKSVETIKEDMNVKFFNSNKKKRDDFEKLTNYSVTDLNVQRKAIHELIQVMAELSPAAKTGKRKRSQMLFRG
B2 was tested, and the ISG gene expression (ISG genes; 10 ng/ml, fibroblasts and macrophages (FIG. 7A, 7B)) was “significantly promote the ISG gene expression” and the “healing of ear holes” value ([1]; IFNγ 50 μg/kg ip once every two days, 35th day after damage (FIG. 7C)) was “significantly promoted the healing of ear holes after damage”.
